How the values were obtained:
Format in all cases: functional
[1] = tested on: Staphylococcus aureus; test: Antibacterial activity against methicillin-resistant Staphylococcus aureus 11 assessed as bacterial growth inhibition in presence of 50 ug/ml calcium ions by CLSI protocol based broth microdilution method
[2] = tested on: Staphylococcus aureus; test: Antibacterial activity against methicillin-resistant Staphylococcus aureus 14 assessed as bacterial growth inhibition in presence of 50 ug/ml calcium ions by CLSI protocol based broth microdilution method
[3] = tested on: Staphylococcus aureus; test: Antibacterial activity against methicillin-resistant Staphylococcus aureus 86 assessed as bacterial growth inhibition in presence of 50 ug/ml calcium ions by CLSI protocol based broth microdilution method
[4] = tested on: Staphylococcus aureus; test: Antibacterial activity against methicillin-resistant Staphylococcus aureus 88 assessed as bacterial growth inhibition in presence of 50 ug/ml calcium ions by CLSI protocol based broth microdilution method
[5] = tested on: Staphylococcus aureus; test: Antibacterial activity against Staphylococcus aureus ATCC 29213 assessed as bacterial growth inhibition in presence of 50 ug/ml calcium ions by CLSI protocol based broth microdilution method
[6] = tested on: Enterococcus faecalis; test: Antibacterial activity against Streptococcus faecalis assessed as bacterial growth inhibition in presence of 50 ug/ml calcium ions by CLSI protocol based broth microdilution method
[7] = tested on: Enterococcus; test: Antibacterial activity against Enterococcus 6 assessed as bacterial growth inhibition in presence of 50 ug/ml calcium ions by CLSI protocol based broth microdilution method
[8] = tested on: Enterococcus; test: Antibacterial activity against Enterococcus 60 assessed as bacterial growth inhibition in presence of 50 ug/ml calcium ions by CLSI protocol based broth microdilution method
[9] = tested on: Enterococcus faecalis; test: Antibacterial activity against Enterococcus faecalis ATCC 29212 assessed as bacterial growth inhibition in presence of 50 ug/ml calcium ions by CLSI protocol based broth microdilution method

Row | SMILES | MIC [1] [µg/mL] | MIC [2] [µg/mL] | MIC [3] [µg/mL] | MIC [4] [µg/mL] | MIC [5] [µg/mL] | MIC [6] [µg/mL] | MIC [7] [µg/mL] | MIC [8] [µg/mL] | MIC [9] [µg/mL]
1 | CCCCCCCCCC(=O)N[C@@H](Cc1c[nH]c2ccccc12)C(=O)N[C@@H](CC(N)=O)C(=O)N[C@@H](CC(=O)O)C(=O)N[C@@H]1C(=O)NCC(=O)N[C@@H](CCCN)C(=O)N[C@@H](CC(=O)O)C(=O)N[C@H](C)C(=O)N[C@@H](CC(=O)O)C(=O)NCC(=O)N[C@H](CO)C(=O)N[C@@H](C)C(=O)N[C@@H](CC(=O)c2ccccc2N)C(=O)O[C@@H]1C | ≥ 64 | ≥ 64 | ≥ 64 | ≥ 64 | ≥ 64 | ≥ 64 | ≥ 64 | ≥ 64 | ≥ 64
2 | CCCCCCCCCC(=O)N[C@@H](Cc1c[nH]c2ccccc12)C(=O)N[C@@H](CC(N)=O)C(=O)N[C@@H](CC(=O)O)C(=O)N[C@@H]1C(=O)NCC(=O)N[C@@H](CCCCN)C(=O)N[C@@H](CC(=O)O)C(=O)N[C@H](C)C(=O)N[C@@H](CC(=O)O)C(=O)NCC(=O)N[C@H](CO)C(=O)N[C@@H]([C@@H](C)CC(=O)O)C(=O)N[C@@H](CC(=O)c2ccccc2N)C(=O)O[C@@H]1C | 16 | ≥ 32 | 1 | 1 | 1 | 8 | ≥ 32 | 16 | ≥ 32
3 | CCCCCCCCCC(=O)N[C@@H](Cc1ccc(OC)cc1)C(=O)N[C@@H](CC(N)=O)C(=O)N[C@@H](CC(=O)O)C(=O)N[C@@H]1C(=O)NCC(=O)N[C@@H](CCCN)C(=O)N[C@@H](CC(=O)O)C(=O)N[C@H](C)C(=O)N[C@@H](CC(=O)O)C(=O)NCC(=O)N[C@H](CO)C(=O)N[C@@H]([C@@H](C)CC(=O)O)C(=O)N[C@@H](CC(=O)c2ccccc2N)C(=O)O[C@@H]1C | 16 | 4 | 2 | 2 | 2 | 8 | ≥ 32 | ≥ 32 | ≥ 32
4 | C[C@H]1NC(=O)[C@H](CC(=O)O)NC(=O)[C@H](CCCN)NC(=O)CNC(=O)[C@@H](NC(=O)[C@H](CC(=O)O)NC(=O)[C@H](CC(N)=O)NC(=O)[C@H](Cc2c[nH]c3ccccc23)NC(=O)c2ccc(C#Cc3ccccc3)cc2)[C@@H](C)OC(=O)[C@H](CC(=O)c2ccccc2N)NC(=O)[C@H]([C@@H](C)CC(=O)O)NC(=O)[C@@H](CO)NC(=O)CNC(=O)[C@H](CC(=O)O)NC1=O | 0.25 | 0.5 | 0.5 | 0.5 | 0.5 | 1 | 8 | 2 | 8
5 | CCCCCCCCCC(=O)N[C@@H](Cc1c[nH]c2ccccc12)C(=O)N[C@@H](CC(N)=O)C(=O)N[C@@H](CC(=O)O)C(=O)N[C@@H]1C(=O)NCC(=O)N2CCC[C@H]2C(=O)N[C@@H](CC(=O)O)C(=O)N[C@H](C)C(=O)N[C@@H](CC(=O)O)C(=O)NCC(=O)N[C@H](CO)C(=O)N[C@@H]([C@@H](C)CC(=O)O)C(=O)N[C@@H](CC(=O)c2ccccc2N)C(=O)O[C@@H]1C | ≥ 32 | ≥ 32 | ≥ 32 | ≥ 32 | ≥ 32 | ≥ 32 | ≥ 32 | ≥ 32 | ≥ 32
6 | CCCCCCCCCC(=O)N[C@@H](Cc1c[nH]c2ccccc12)C(=O)N[C@@H](CC(N)=O)C(=O)N[C@@H](CC(=O)O)C(=O)N[C@@H]1C(=O)NCC(=O)N[C@@H](C(C)C)C(=O)N[C@@H](CC(=O)O)C(=O)N[C@H](C)C(=O)N[C@@H](CC(=O)O)C(=O)NCC(=O)N[C@H](CO)C(=O)N[C@@H]([C@@H](C)CC(=O)O)C(=O)N[C@@H](CC(=O)c2ccccc2N)C(=O)O[C@@H]1C | ≥ 32 | ≥ 32 | 8 | 8 | 8 | ≥ 32 | ≥ 32 | ≥ 32 | ≥ 32
7 | CCCCCCCCCC(=O)N[C@@H](Cc1ccc2ccccc2c1)C(=O)N[C@@H](CC(N)=O)C(=O)N[C@@H](CC(=O)O)C(=O)N[C@@H]1C(=O)NCC(=O)N[C@@H](CCCN)C(=O)N[C@@H](CC(=O)O)C(=O)N[C@H](C)C(=O)N[C@@H](CC(=O)O)C(=O)NCC(=O)N[C@H](CO)C(=O)N[C@@H]([C@@H](C)CC(=O)O)C(=O)N[C@@H](CC(=O)c2ccccc2N)C(=O)O[C@@H]1C | 0.5 | 0.125 | 0.06 | 0.125 | 0.25 | 0.25 | 4 | 0.5 | 1
8 | CCCCCCCCCC(=O)N[C@@H](C)C(=O)N[C@@H](CC(N)=O)C(=O)N[C@@H](CC(=O)O)C(=O)N[C@@H]1C(=O)NCC(=O)N[C@@H](CCCN)C(=O)N[C@@H](CC(=O)O)C(=O)N[C@H](C)C(=O)N[C@@H](CC(=O)O)C(=O)NCC(=O)N[C@H](CO)C(=O)N[C@@H]([C@@H](C)CC(=O)O)C(=O)N[C@@H](CC(=O)c2ccccc2N)C(=O)O[C@@H]1C | ≥ 32 | ≥ 32 | ≥ 32 | ≥ 32 | ≥ 32 | ≥ 64 | ≥ 64 | ≥ 64 | ≥ 64
9 | CCCCCCCCCC(=O)N[C@@H](Cc1c[nH]c2ccccc12)C(=O)N[C@@H](CC(N)=O)C(=O)N[C@@H](CC(=O)O)C(=O)N[C@@H]1C(=O)NCC(=O)N[C@@H](CCCN)C(=O)N[C@@H](C)C(=O)N[C@H](C)C(=O)N[C@@H](CC(=O)O)C(=O)NCC(=O)N[C@H](CO)C(=O)N[C@@H]([C@@H](C)CC(=O)O)C(=O)N[C@@H](CC(=O)c2ccccc2N)C(=O)O[C@@H]1C | ≥ 64 | ≥ 64 | ≥ 64 | ≥ 64 | ≥ 64 | ≥ 64 | ≥ 64 | ≥ 64 | ≥ 64
10 | CCCCCCCCCC(=O)N[C@@H](Cc1c[nH]c2ccccc12)C(=O)N[C@@H](C)C(=O)N[C@@H](CC(=O)O)C(=O)N[C@@H]1C(=O)NCC(=O)N[C@@H](CCCN)C(=O)N[C@@H](CC(=O)O)C(=O)N[C@H](C)C(=O)N[C@@H](CC(=O)O)C(=O)NCC(=O)N[C@H](CO)C(=O)N[C@@H]([C@@H](C)CC(=O)O)C(=O)N[C@@H](CC(=O)c2ccccc2N)C(=O)O[C@@H]1C | ≥ 32 | ≥ 32 | ≥ 32 | 16 | ≥ 32 | 16 | 64 | 32 | 64
11 | CCCCCCCCCC(=O)N[C@@H](Cc1c[nH]c2ccccc12)C(=O)N[C@@H](CC(N)=O)C(=O)N[C@@H](CC(=O)O)C(=O)N[C@@H]1C(=O)NCC(=O)N[C@@H](CCCN)C(=O)N[C@@H](CC(=O)O)C(=O)N[C@H](C)C(=O)N[C@@H]([C@H](C)CC(=O)O)C(=O)NCC(=O)N[C@H](CO)C(=O)N[C@@H](CC(=O)O)C(=O)N[C@@H](CC(=O)c2ccccc2N)C(=O)O[C@@H]1C | ≥ 32 | ≥ 32 | ≥ 32 | ≥ 32 | ≥ 32 | ≥ 32 | ≥ 32 | ≥ 32 | ≥ 32
12 | CCCCCCCCCC(=O)N[C@@H](Cc1c[nH]c2ccccc12)C(=O)N[C@@H](CC(N)=O)C(=O)N[C@@H](CC(=O)O)C(=O)N[C@@H]1C(=O)NCC(=O)N[C@@H](CCN)C(=O)N[C@@H](CC(=O)O)C(=O)N[C@H](C)C(=O)N[C@@H](CC(=O)O)C(=O)NCC(=O)N[C@H](CO)C(=O)N[C@@H]([C@@H](C)CC(=O)O)C(=O)N[C@@H](CC(=O)c2ccccc2N)C(=O)O[C@@H]1C | 2 | 0.5 | 0.25 | 0.25 | 0.25 | – | 16 | 8 | 16
13 | CCCCCCCCCC(=O)N[C@@H](Cc1c[nH]c2ccccc12)C(=O)N[C@@H](CC(N)=O)C(=O)N[C@@H](CC(=O)O)C(=O)N[C@@H]1C(=O)NCC(=O)N[C@@H](CCCN)C(=O)N[C@@H](CC(=O)O)C(=O)N[C@H](C)C(=O)N[C@@H](CC(N)=O)C(=O)NCC(=O)N[C@H](CO)C(=O)N[C@@H]([C@@H](C)CC(=O)O)C(=O)N[C@@H](CC(=O)c2ccccc2N)C(=O)O[C@@H]1C | ≥ 32 | ≥ 32 | 32 | 16 | 16 | ≥ 32 | ≥ 32 | ≥ 32 | ≥ 32
14 | CCCCCCCCCC(=O)N[C@@H](Cc1c[nH]c2ccccc12)C(=O)N[C@@H](CC(N)=O)C(=O)N[C@@H](CC(=O)O)C(=O)N[C@@H]1C(=O)NCC(=O)N[C@@H](CC(=O)O)C(=O)N[C@@H](CC(=O)O)C(=O)N[C@H](C)C(=O)N[C@@H](CC(=O)O)C(=O)NCC(=O)N[C@H](CO)C(=O)N[C@@H]([C@@H](C)CC(=O)O)C(=O)N[C@@H](CC(=O)c2ccccc2N)C(=O)O[C@@H]1C | ≥ 32 | ≥ 32 | 16 | 8 | 16 | ≥ 32 | ≥ 32 | ≥ 32 | ≥ 32
15 | CCCCCCCCCC(=O)N[C@@H](Cc1c[nH]c2ccccc12)C(=O)N[C@@H](CC(N)=O)C(=O)N[C@@H](CC(=O)O)C(=O)N[C@@H]1C(=O)NCC(=O)N[C@@H](CN)C(=O)N[C@@H](CC(=O)O)C(=O)N[C@H](C)C(=O)N[C@@H](CC(=O)O)C(=O)NCC(=O)N[C@H](CO)C(=O)N[C@@H]([C@@H](C)CC(=O)O)C(=O)N[C@@H](CC(=O)c2ccccc2N)C(=O)O[C@@H]1C | 8 | 1 | 1 | 0.5 | 1 | – | ≥ 32 | 8 | ≥ 32

Source: ChEMBL document CHEMBL4619795, “Establishing the Structure-Activity Relationship of Daptomycin” (ACS Med Chem Lett, 2020)
